Read-outs that look alike come from different tables or passages of the source.
Tests used:
A549/ATCC = test: NCI one-dose SRB anti-proliferative screen; assay type: cell-based; conditions: Homo sapiens, read-out: Cell growth inhibition %
Procedure, shortened: (§1)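 The selected hybrids underwent one-dose evaluation at 10 µM. Cellular growth was estimated by colorimetric detection of bound sulforhodamine B. Lines came from a sixty-member panel representing nine tumour types.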

ACHN = test: NCI one-dose SRB anti-proliferative screen; assay type: cell-based; conditions: Homo sapiens, read-out: Cell growth inhibition %
Procedure, shortened: as §1

CCRF-CEM = test: NCI one-dose SRB anti-proliferative screen; assay type: cell-based; conditions: Homo sapiens, read-out: Cell growth inhibition %
Procedure, shortened: as §1

COLO 205 = test: NCI one-dose SRB anti-proliferative screen; assay type: cell-based; conditions: Homo sapiens, read-out: Cell growth inhibition %
Procedure, shortened: as §1

DU-145 = test: NCI one-dose SRB anti-proliferative screen; assay type: cell-based; conditions: Homo sapiens, read-out: Cell growth inhibition %
Procedure, shortened: as §1

HCT-15 = test: NCI one-dose SRB anti-proliferative screen; assay type: cell-based; conditions: Homo sapiens, read-out: Cell growth inhibition %
Procedure, shortened: as §1

HL-60(TB) = test: NCI one-dose SRB anti-proliferative screen; assay type: cell-based; conditions: Homo sapiens, read-out: Cell growth inhibition %
Procedure, shortened: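 Activity reflects a single-point exposure at 10 µM, with cell mass determined by a sulforhodamine B dye assay.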

HOP-92 = test: NCI one-dose SRB anti-proliferative screen; assay type: cell-based; conditions: Homo sapiens, read-out: Cell growth inhibition %
Procedure, shortened: as §1

HS 578T = test: NCI one-dose SRB anti-proliferative screen; assay type: cell-based; conditions: Homo sapiens, read-out: Cell growth inhibition %
Procedure, shortened: as §1

HT29 = test: NCI one-dose SRB anti-proliferative screen; assay type: cell-based; conditions: Homo sapiens, HT-29, read-out: Cell growth inhibition %
Procedure, shortened: as §1

KM12 = test: NCI one-dose SRB anti-proliferative screen; assay type: cell-based; conditions: Homo sapiens, read-out: Cell growth inhibition %
Procedure, shortened: as §1

LOX IMVI = test: NCI one-dose SRB anti-proliferative screen; assay type: cell-based; conditions: Homo sapiens; for inhibition at 10 µM: read-out: Cell growth inhibition %
Procedure, shortened: as §1

M14 = test: NCI one-dose SRB anti-proliferative screen; assay type: cell-based; conditions: Homo sapiens, read-out: Cell growth inhibition %
Procedure, shortened: as §1

MALME-3M = test: NCI one-dose SRB anti-proliferative screen; assay type: cell-based; conditions: Homo sapiens, read-out: Cell growth inhibition %
Procedure, shortened: as §1

MDA-MB-468 = test: NCI one-dose SRB anti-proliferative screen; assay type: cell-based; conditions: Homo sapiens, read-out: Cell growth inhibition %
Procedure, shortened: as §1

NCI-H460 = test: NCI one-dose SRB anti-proliferative screen; assay type: cell-based; conditions: Homo sapiens, read-out: Cell growth inhibition %
Procedure, shortened: as §1

NCI/ADR-RES = test: NCI one-dose SRB anti-proliferative screen; assay type: cell-based; conditions: Homo sapiens, read-out: Cell growth inhibition %
Procedure, shortened: as §1

OVCAR-3 = test: NCI one-dose SRB anti-proliferative screen; assay type: cell-based; conditions: Homo sapiens, read-out: Cell growth inhibition %
Procedure, shortened: as §1

OVCAR-4 = test: NCI one-dose SRB anti-proliferative screen; assay type: cell-based; conditions: Homo sapiens, read-out: Cell growth inhibition %
Procedure, shortened: as §1

OVCAR-5 = test: NCI one-dose SRB anti-proliferative screen; assay type: cell-based; conditions: Homo sapiens, read-out: Cell growth inhibition %
Procedure, shortened: as §1

PC-3 = test: NCI one-dose SRB anti-proliferative screen; assay type: cell-based; conditions: Homo sapiens, read-out: Cell growth inhibition %
Procedure, shortened: as §1

RPMI-8226 = test: NCI one-dose SRB anti-proliferative screen; assay type: cell-based; conditions: Homo sapiens, read-out: Cell growth inhibition %
Procedure, shortened: as §1

SF-268 = test: NCI one-dose SRB anti-proliferative screen; assay type: cell-based; conditions: Homo sapiens, read-out: Cell growth inhibition %
Procedure, shortened: as §1

SF-539 = test: NCI one-dose SRB anti-proliferative screen; assay type: cell-based; conditions: Homo sapiens, read-out: Cell growth inhibition %
Procedure, shortened: as §1

SK-MEL-28 = test: NCI one-dose SRB anti-proliferative screen; assay type: cell-based; conditions: Homo sapiens, read-out: Cell growth inhibition %
Procedure, shortened: as §1

SK-MEL-2 = test: NCI one-dose SRB anti-proliferative screen; assay type: cell-based; conditions: Homo sapiens, read-out: Cell growth inhibition %
Procedure, shortened: as §1

SN12C = test: NCI one-dose SRB anti-proliferative screen; assay type: cell-based; conditions: Homo sapiens, read-out: Cell growth inhibition %
Procedure, shortened: as §1

SNB-75 = test: NCI one-dose SRB anti-proliferative screen; assay type: cell-based; conditions: Homo sapiens, read-out: Cell growth inhibition %
Procedure, shortened: as §1

SW-620 = test: NCI one-dose SRB anti-proliferative screen; assay type: cell-based; conditions: Homo sapiens, read-out: Cell growth inhibition %
Procedure, shortened: as §1

UACC-257 = test: NCI one-dose SRB anti-proliferative screen; assay type: cell-based; conditions: Homo sapiens, read-out: Cell growth inhibition %
Procedure, shortened: as §1

UACC-62 = test: NCI one-dose SRB anti-proliferative screen; assay type: cell-based; conditions: Homo sapiens, read-out: Cell growth inhibition %
Procedure, shortened: as §1

Structure (SMILES): COc1ccc(-c2nc3cc(-c4nnc(SCC(=O)Nc5ccc(C(=O)/C=C/c6ccc(OC)c(OC)c6)cc5)o4)ccc3[nH]2)cc1 [Compound 7n, 2-{5-[2-(4-Methoxyphenyl)-1 H-benzo[d]imidazol-5-yl]-1,3,4-oxadiazol-2-ylthio}-N-{4-[(E)-3-(3,4-dimethoxyphenyl)acryloyl]phenyl}acetamide]
- inhibition at 10 µM (A549/ATCC; A549/ATCC, Non-Small Cell Lung Cancer, NCI one dose): 3.19%
- inhibition at 10 µM (ACHN; ACHN, Renal cancer, NCI one dose): 10.7%
- inhibition at 10 µM (CCRF-CEM; CCRF-CEM, Leukemia, NCI one dose): 38.8%
- inhibition at 10 µM (COLO 205; COLO 205, Colon cancer, NCI one dose): 0%
- inhibition at 10 µM (DU-145; DU-145, Prostate Cancer, NCI one dose): 13.4%
- inhibition at 10 µM (HCT-15; HCT-15, Colon cancer, NCI one dose): 31.8%
- inhibition at 10 µM (HL-60(TB); HL-60(TB), Leukemia, NCI one dose): 13.8%
- inhibition at 10 µM (HOP-92; HOP-92, Non-Small Cell Lung Cancer, NCI one dose): 0%
- inhibition at 10 µM (HS 578T; HS 578T, Breast cancer, NCI one dose): 7.35%
- inhibition at 10 µM (HT29; HT29, Colon cancer, NCI one dose): 0%
- inhibition at 10 µM (KM12; KM12, Colon cancer, NCI one dose): 23.4%
- activity at 10 µM (LOX IMVI; LOX IMVI (Melanoma), 10 µM one dose, read-out: Growth Percent): 44%
- inhibition at 10 µM (LOX IMVI; Melanoma, NCI one dose): 56.1%
- inhibition at 10 µM (M14; M14, Melanoma, NCI one dose): 10.6%
- inhibition at 10 µM (MALME-3M; MALME-3M, Melanoma, NCI one dose): 14.6%
- inhibition at 10 µM (MDA-MB-468; MDA-MB-468, Breast cancer, NCI one dose): 10.7%
- inhibition at 10 µM (NCI-H460; NCI-H460, Non-Small Cell Lung Cancer, NCI one dose): 8.91%
- inhibition at 10 µM (NCI/ADR-RES; NCI/ADR-RES, Ovarian Cancer, NCI one dose): 6.05%
- inhibition at 10 µM (OVCAR-3; OVCAR-3, Ovarian Cancer, NCI one dose): 14.3%
- inhibition at 10 µM (OVCAR-4; OVCAR-4, Ovarian Cancer, NCI one dose): 13.2%
- inhibition at 10 µM (OVCAR-5; OVCAR-5, Ovarian Cancer, NCI one dose): 0%
- inhibition at 10 µM (PC-3; PC-3, Prostate Cancer, NCI one dose): 2.83%
- inhibition at 10 µM (RPMI-8226; RPMI-8226, Leukemia, NCI one dose): 32.3%
- inhibition at 10 µM (SF-268; SF-268, CNS Cancer, NCI one dose): 0.44%
- inhibition at 10 µM (SF-539; SF-539, CNS Cancer, NCI one dose): 13.3%
- inhibition at 10 µM (SK-MEL-28; SK-MEL-28, Melanoma, NCI one dose): 3.97%
- inhibition at 10 µM (SK-MEL-2; SK-MEL-2, Melanoma, NCI one dose): 6.27%
- inhibition at 10 µM (SN12C; SN 12C, Renal cancer, NCI one dose): 8.67%
- inhibition at 10 µM (SNB-75; SNB-75, CNS Cancer, NCI one dose): 22.1%
- inhibition at 10 µM (SW-620; SW-620, Colon cancer, NCI one dose): 13.6%
- inhibition at 10 µM (UACC-257; UACC-257, Melanoma, NCI one dose): 1.66%
- inhibition at 10 µM (UACC-62; UACC-62, Melanoma, NCI one dose): 15.8%
- melting point: 222 to 224 °C

Structure (SMILES): O=C(CSc1nnc(-c2ccc3[nH]c(-c4ccc(Cl)cc4)nc3c2)o1)Nc1ccc(C(=O)/C=C/c2ccc(Cl)cc2)cc1 [Compound 7g, 2-{5-[2-(4-Chlorophenyl)-1 H-benzo[d]imidazol-5-yl]-1,3,4-oxadiazol-2-ylthio}-N-{4-[(E)-3-(4-chlorophenyl)acryloyl]phenyl}acetamide]
- inhibition at 10 µM (A549/ATCC; A549/ATCC (Non-Small Cell Lung Cancer), NCI one dose 10 µM): 4.52%
- inhibition at 10 µM (ACHN; ACHN (Renal Cancer), NCI one dose 10 µM): 1.98%
- inhibition at 10 µM (CCRF-CEM; CCRF-CEM (Leukemia), NCI one dose 10 µM): 13.6%
- inhibition at 10 µM (COLO 205; COLO 205 (Colon Cancer), NCI one dose 10 µM): 0%
- inhibition at 10 µM (DU-145; DU-145 (Prostate Cancer), NCI one dose 10 µM): 0%
- inhibition at 10 µM (HCT-15; HCT-15 (Colon Cancer), NCI one dose 10 µM): 10.2%
- inhibition at 10 µM (HL-60(TB); HL-60(TB) (Leukemia), NCI one dose 10 µM): 14%
- inhibition at 10 µM (HOP-92; HOP-92 (Non-Small Cell Lung Cancer), NCI one dose 10 µM): 5.81%
- inhibition at 10 µM (HS 578T; HS 578T (Breast Cancer), NCI one dose 10 µM): 11%
- inhibition at 10 µM (HT29; HT29 (Colon Cancer), NCI one dose 10 µM): 0%
- inhibition at 10 µM (KM12; KM12 (Colon Cancer), NCI one dose 10 µM): 0.67%
- inhibition at 10 µM (LOX IMVI; LOX IMIV (Melanoma), NCI one dose 10 µM): 124%
- inhibition at 10 µM (M14; M14 (Melanoma), NCI one dose 10 µM): 0%
- inhibition at 10 µM (MALME-3M; MALME-3M (Melanoma), NCI one dose 10 µM): 0%
- inhibition at 10 µM (MDA-MB-468; MDA-MB-468 (Breast Cancer), NCI one dose 10 µM): 0%
- inhibition at 10 µM (NCI-H460; NCI-H460 (Non-Small Cell Lung Cancer), NCI one dose 10 µM): 0%
- inhibition at 10 µM (NCI/ADR-RES; NCI/ADR-RES (Ovarian Cancer), NCI one dose 10 µM): 0%
- inhibition at 10 µM (OVCAR-3; OVCAR-3 (Ovarian Cancer), NCI one dose 10 µM): 0%
- inhibition at 10 µM (OVCAR-4; OVCAR-4 (Ovarian Cancer), NCI one dose 10 µM): 0%
- inhibition at 10 µM (OVCAR-5; OVCAR-5 (Ovarian Cancer), NCI one dose 10 µM): 0%
- inhibition at 10 µM (PC-3; PC-3 (Prostate Cancer), NCI one dose 10 µM): 12.3%
- inhibition at 10 µM (RPMI-8226; RPMI-8226 (Leukemia), NCI one dose 10 µM): 95%
- inhibition at 10 µM (SF-268; SF-268 (CNS Cancer), NCI one dose 10 µM): 0.08%
- inhibition at 10 µM (SF-539; SF-539 (CNS Cancer), NCI one dose 10 µM): 15.7%
- inhibition at 10 µM (SK-MEL-28; SK-MEL-28 (Melanoma), NCI one dose 10 µM): 0%
- inhibition at 10 µM (SK-MEL-2; SK-MEL-2 (Melanoma), NCI one dose 10 µM): 0%
- inhibition at 10 µM (SN12C; SN 12C (Renal Cancer), NCI one dose 10 µM): 15.1%
- inhibition at 10 µM (SNB-75; SNB-75 (CNS Cancer), NCI one dose 10 µM): 9.09%
- inhibition at 10 µM (SW-620; SW-620 (Colon Cancer), NCI one dose 10 µM): 0%
- inhibition at 10 µM (UACC-257; UACC-257 (Melanoma), NCI one dose 10 µM): 0%
- inhibition at 10 µM (UACC-62; UACC-62 (Melanoma), NCI one dose 10 µM): 16.8%
- melting point: 215 to 217 °C
